Test results published in the supplement of paper PMC10307832.

How the values were obtained:
Assay in all cases: relative viability (nuclei count vs DMSO), 5 days (fraction); higher = more cells survive
[1] = compound: Cn1c(=O)n(-c2ccc(C(C)(C)C#N)cc2)c2c3cc(-c4cnc5ccccc5c4)ccc3ncc21 [Dactolisib] + Cc1cc(Nc2cc(N3CCN(C)CC3)nc(Sc3ccc(NC(=O)C4CC4)cc3)n2)n[nH]1 [Tozasertib] (partner 0.1 µM)
How it was run: (§1)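 Relative viability equals treated-well nuclei counts divided by vehicle-well nuclei counts. Counts came from 4× images of lung cancer cell lines grown in 1536-well plates for 5 days after pin-tool dosing on the day after seeding. Dosing used one drug alone or a fixed anchor-drug dose plus five library-drug doses (not always all listed) in √10 steps, and values are medians of duplicate plates.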

[2] = compound: Cn1c(=O)n(-c2ccc(C(C)(C)C#N)cc2)c2c3cc(-c4cnc5ccccc5c4)ccc3ncc21 [Dactolisib] + O=C(c1cc(Cc2n[nH]c(=O)c3ccccc23)ccc1F)N1CCN(C(=O)C2CC2)CC1 [Olaparib] (partner 8 µM)
How it was run: as §1

[3] = compound: C1CCC(CC1)N(CCNCCC2=C3C(=C(C=C2)O)NC(=O)CO3)C(=O)CCNCCC4=CC(=C(C=C4)Cl)Cl [AZ505] + COc1cc2c(Oc3ccc(NC(=O)C4(C(=O)Nc5ccc(F)cc5)CC4)cc3F)ccnc2cc1OCCCN1CCOCC1 [Foretinib] (partner 0.25 µM)
How it was run: as §1

[4] = compound: C1CCC(CC1)N(CCNCCC2=C3C(=C(C=C2)O)NC(=O)CO3)C(=O)CCNCCC4=CC(=C(C=C4)Cl)Cl [AZ505] + CS(=O)(=O)N1CCN(Cc2cc3nc(-c4cccc5[nH]ncc45)nc(N4CCOCC4)c3s2)CC1 [Pictilisib] (partner 1 µM)
How it was run: as §1

Cell Line | relative viability ([1]; first compound 0.002 µM) | relative viability ([1]; first compound 0.006325 µM) | relative viability ([1]; first compound 0.02 µM) | relative viability ([1]; first compound 0.06325 µM) | relative viability ([1]; first compound 0.2 µM) | relative viability ([2]; first compound 0.002 µM) | relative viability ([2]; first compound 0.006325 µM) | relative viability ([2]; first compound 0.02 µM) | relative viability ([2]; first compound 0.06325 µM) | relative viability ([2]; first compound 0.2 µM) | relative viability ([3]; first compound 0.08 µM) | relative viability ([3]; first compound 0.253 µM) | relative viability ([3]; first compound 0.8 µM) | relative viability ([3]; first compound 2.53 µM) | relative viability ([3]; first compound 8 µM) | relative viability ([4]; first compound 0.08 µM) | relative viability ([4]; first compound 0.253 µM) | relative viability ([4]; first compound 0.8 µM) | relative viability ([4]; first compound 2.53 µM) | relative viability ([4]; first compound 8 µM)
NCI-H1648 | 0.407 | 0.433 | 0.446 | 0.24 | 0.218 | 0.998 | 0.78 | 0.799 | 0.473 | 0.246 |  |  |  |  |  |  |  |  |  | 
SK-MES-1 | 0.989 | 0.84 | 0.876 | 0.32 | 0.264 | 0.739 | 0.685 | 0.531 | 0.286 | 0.171 | 0.765 | 0.774 | 0.824 | 0.782 | 0.738 | 0.377 | 0.394 | 0.388 | 0.38 | 0.411
SK-LU-1 | 0.324 | 0.307 | 0.302 | 0.245 | 0.176 | 0.428 | 0.406 | 0.539 | 0.402 | 0.216 | 0.542 | 0.58 | 0.612 | 0.515 | 0.51 | 0.333 | 0.419 | 0.332 | 0.323 | 0.435
HCC-366 | 0.11 | 0.101 | 0.0652 | 0.0776 | 0.0308 | 0.243 | 0.356 | 0.38 | 0.166 | 0.142 | 0.926 | 0.878 | 0.889 | 0.852 | 0.924 | 0.136 | 0.186 | 0.123 | 0.128 | 0.18
201T | 0.936 | 0.965 | 0.98 | 0.879 | 0.474 | 0.833 | 0.824 | 0.849 | 0.782 | 0.54 | 1.01 | 1.14 | 1.07 | 1.06 | 1.19 | 0.651 | 0.678 | 0.613 | 0.633 | 0.674
HCC-827 | 0.419 | 0.452 | 0.401 | 0.416 | 0.329 | 0.601 | 0.611 | 0.608 | 0.479 | 0.411 | 0.891 | 1.08 | 1.02 | 1.08 | 1.09 | 0.944 | 0.963 | 1.1 | 0.999 | 0.953
NCI-H647 | 0.265 | 0.235 | 0.19 | 0.099 | 0.112 | 0.54 | 0.349 | 0.315 | 0.129 | 0.0846 | 1.22 | 1.37 | 0.963 | 1.19 | 1.12 | 0.448 |  | 0.359 | 0.422 | 0.485
NCI-H2023 | 0.351 | 0.312 | 0.313 | 0.109 | 0.0881 | 0.484 | 0.43 | 0.281 | 0.122 | 0.0803 | 0.743 | 0.916 | 0.869 | 0.854 | 0.776 | 0.249 | 0.17 | 0.197 | 0.264 | 0.223
NCI-H520 | 0.425 | 0.468 | 0.365 | 0.196 | 0.218 | 0.328 | 0.308 | 0.284 | 0.144 | 0.128 | 0.625 | 0.756 | 0.76 | 0.772 | 0.745 | 0.264 | 0.273 | 0.284 | 0.272 | 0.259
RERF-LC-KJ | 0.535 | 0.551 | 0.599 | 0.279 | 0.397 | 1.06 | 0.893 | 0.829 | 0.385 | 0.403 | 0.906 | 0.829 | 0.8 | 0.46 | 0.863 | 0.578 | 0.591 | 0.448 | 0.565 | 0.666
A-427 | 0.201 | 0.192 | 0.253 | 0.208 | 0.187 | 0.877 | 0.675 | 0.707 | 0.619 | 0.495 | 1.05 | 1.04 | 0.997 | 1.1 | 1.13 | 0.693 | 0.514 | 0.566 | 0.726 | 0.741
NCI-H441 | 0.831 | 0.632 | 0.522 | 0.384 | 0.284 | 0.784 | 0.571 | 0.597 | 0.248 | 0.25 | 0.909 | 0.97 | 1.09 | 0.876 | 1.06 | 0.427 | 0.548 | 0.458 | 0.546 | 0.521
NCI-H1703 |  |  |  |  |  |  | 0.292 | 0.389 | 0.198 | 0.285 |  | 0.411 | 0.335 | 0.366 | 0.365 | 0.242 | 0.235 | 0.231 | 0.256 | 0.25
NCI-H1792 |  |  |  |  |  | 0.427 | 0.319 | 0.394 | 0.135 | 0.101 |  |  |  |  |  | 0.301 | 0.262 | 0.288 | 0.25 | 0.323
Calu-6 |  |  |  |  |  | 0.553 | 0.642 | 0.688 | 0.469 | 0.458 | 0.814 | 0.901 | 0.819 | 0.799 | 0.892 | 0.835 | 0.989 | 0.884 | 0.905 | 0.867
SW 1573 | 0.153 | 0.2 | 0.232 | 0.154 | 0.0965 | 0.557 | 0.324 | 0.418 | 0.162 | 0.145 | 0.873 | 0.993 | 0.918 | 0.817 | 0.959 | 0.456 | 0.514 | 0.422 | 0.467 | 0.571
PC-3 [JPC-3] | 0.967 | 0.896 | 0.803 | 0.831 | 0.608 | 1.17 | 1.07 | 1.21 | 1.02 | 0.963 | 0.945 | 0.936 | 0.923 | 0.991 | 1.04 | 0.597 | 0.702 | 0.676 | 0.706 | 0.827
